Test results: ChEMBL document CHEMBL1156829 (Proc Natl Acad Sci U S A, 2008)

Key:
[1] = NOVARTIS: Cytotoxicity against human hepatocellular carcinoma cell line (Huh7); assay type: toxicity, cell-based, Huh-7; settings: Huh7 cells (hepatocellular carcinoma cell line)
Plasmodium falciparum [2] = experiment: NOVARTIS: Inhibition of Plasmodium falciparum W2 (drug-resistant) proliferation in erythrocyte-based infection assay; assay type: functional, organism-based; settings: Plasmodium falciparum, W2; read-out: EC50
Plasmodium falciparum [3] = experiment: NOVARTIS: Inhibition of Plasmodium falciparum 3D7 (drug-susceptible) proliferation in erythrocyte-based infection assay; assay type: functional, organism-based; settings: Plasmodium falciparum, 3D7

SMILES | CC50 [1] | EC50 (Plasmodium falciparum [2]) | EC50 (Plasmodium falciparum [3])
Oc1ccc2ccccc2c1CNc1nc2ccccc2[nH]1 | 14300 nM | 450 nM | 652 nM
Cc1nc(C23CC4CC(CC(C4)C2)C3)cs1 | > 100000 nM | 1860 nM | > 12500 nM
CC(NCc1ccccc1)c1cc(Cl)ccc1O (stereo unspecified) | 73300 nM | 97.2 nM | 592 nM
CCCCCCCCCCCCOCCCNC(=O)c1cccc(N)c1 | > 10000 nM | > 1560 nM | 1570 nM
COc1ccc(CN(Cc2cc3cccc(C)c3nc2N2CCCC(O)C2)C(=O)c2ccc(OC)c(OC)c2)cc1 (stereo unspecified) | > 100000 nM | 1220 nM | 1420 nM
COc1ccc(-c2nc(NC(=O)CS(=O)(=O)c3ccccc3)sc2C)cc1 | > 100000 nM | 2300 nM | 505 nM
COc1cccc(-c2ccc(O)c(CNCC3CCCCC3)c2)n1 | 46600 nM | 17.7 nM | 58.5 nM
COc1ccccc1CN1CCC(S(=O)(=O)c2ccccc2)CC1 | 1080 nM | 52.3 nM | 349 nM
Cc1ccnc(Nc2nc(-c3ccc(Cl)cc3)cs2)c1 | > 100000 nM | > 12500 nM | 4510 nM
Cc1ccc(N2C(=O)CC(NCCCN3CCOCC3)C2=O)cc1 (stereo unspecified) | > 10000 nM | 1610 nM | > 1290 nM
COC(=O)C1=CNC=C(C(=O)OC)C1c1ccc(Cl)c([N+](=O)[O-])c1 | > 100000 nM | 165 nM | 135 nM
CN(C)CCNc1c2c(nc3ccccc13)CCC2 | 61400 nM | 242 nM | 579 nM
CC(C)CNc1nc(NCCCN)ncc1C(=O)NCCc1ccccc1 | > 10000 nM | > 1250 nM | 598 nM
Cn1nc(C(=O)N2CCCCCC2)c2c1CCC(NCC(C)(C)N1CCOCC1)C2 (stereo unspecified) | > 9560 nM | 5.52 nM | 22.5 nM
CCCCc1ccc(C(=O)N(CCc2ccccc2)C(CC)c2nc3ccccc3c(=O)n2-c2ccccc2OC)cc1 (stereo unspecified) | > 6270 nM | 354 nM | 311 nM
CCOC(=O)C1=C(C)NC2=C(C(=O)C(C(=O)OCC)C(c3cccc(OC)c3)C2)C1c1cc(OC)c(OC)c(OC)c1 (stereo unspecified) | > 100000 nM | 494 nM | 1090 nM
CC(=O)N(C1=C(N2CCOCC2)C(=O)c2ccccc2C1=O)c1cc(C)cc(C)c1 | 6940 nM | 63.3 nM | 40.1 nM
COc1ccc2c(C)nc(NC(=N)N)nc2c1 | 66400 nM | 1020 nM | 417 nM
CCOc1ccc(C(=O)C(C)[n+]2cc(-c3ccc(Cl)cc3)n3c2CCC3)cc1 (stereo unspecified) | > 78300 nM | 976 nM | 1500 nM

SMILES | CC50 [1] | EC50 (Plasmodium falciparum [2]) | EC50 (Plasmodium falciparum [3])
O=C1c2ccccc2C2=Nc3ccccc3SC(c3cccc(F)c3)C12 (stereo unspecified) | 30300 nM | 135 nM | 86.7 nM
COc1ccc(NC(=O)/C=C/c2ccccc2Cl)cc1 | > 10000 nM | > 1140 nM | > 1250 nM
NCC(c1ccc(F)cc1)c1ccc(F)cc1 | > 9210 nM | 99.8 nM | > 345 nM
Cc1ncc(CN2CCC(C(=O)Nc3ccc(-c4nc5ccccc5o4)cc3)CC2)s1 | > 100000 nM | 721 nM | 740 nM
CN(CCCNc1ccnc2cc(Cl)ccc12)C(=O)c1cccc(Br)c1 | 9590 nM | 137 nM | 59.6 nM
CC(C)(C)c1ccc(C(=O)N2CCCn3cccc3C2c2ccc(C(C)(C)C)cc2)cc1 (stereo unspecified) | > 100000 nM | 1290 nM | 1560 nM
Cc1cc(C)nc(NNc2c([N+](=O)[O-])cccc2[N+](=O)[O-])n1 | 22000 nM | 167 nM | 1800 nM
NCCNC(=O)COC(c1cccnc1)c1ccccc1Cl (stereo unspecified) | > 10000 nM | > 1150 nM | > 1250 nM
CCCCCCCn1c2c(c(=N)c3c1CCC3)CCCC2 | 2720 nM | 91.4 nM | 69.3 nM
CCCOc1ccc(NC(=O)c2ccco2)cc1 | 16900 nM | 406 nM | 1150 nM
COc1ccccc1Cn1c(SCc2ccc(Cl)cc2)nc2ccc(Br)cc2c1=O | > 10000 nM | > 1050 nM | > 1160 nM
CCC(C)OC(=O)C1=C(C)NC2=C(C(=O)CC(c3ccc(Cl)cc3)C2)C1c1ccc(Cl)cc1 (stereo unspecified) | > 100000 nM | 43.8 nM | 216 nM
O=C(c1ccc2ccccc2c1)N1CCc2ccccc21 | > 100000 nM | 4570 nM | 3500 nM
CCCCNCCOCCOc1ccc(Br)cc1 | 35700 nM | 1610 nM | > 11700 nM
COc1ccc(C(=O)N2c3cc(C)ccc3C(Nc3ccc(C)cc3)CC2C)cc1 (stereo unspecified) | > 100000 nM | 2620 nM | > 12500 nM
O=C(COC(=O)c1c2c(nc3ccccc13)CCCCCCCCCC2)c1ccc(Cl)cc1 | > 100000 nM | > 10000 nM | > 11200 nM
N=C1NC(=O)/C(=C/C=C/c2ccc([N+](=O)[O-])o2)S1 | 17100 nM | 592 nM | 1080 nM
O=C(N/C(=C/C=C\c1ccccc1)C(=O)N1CCOCC1)c1ccc(Br)cc1 | > 10000 nM | 401 nM | > 1300 nM
